Source: patent publication US20240279684A1, “CYTOSOLIC DELIVERY OF GENOME EDITING TOOLS” (SAPREME TECHNOLOGIES B.V., priority 2021, published 2024)

Tested on: JIMT-1 cells
Test: Transfection efficiency of PD-nanoplexes with/without saponin, flow cytometry (GFP)
Assay type: cell-based, human
Conditions: GFP-DNA PD-nanoplexes, saponin 2 μg/ml
Experimental: After biophysical characterisation had established that nanoplexes of the large plasmid DNA and the poly-lysine peptide were formed, cell experiments were performed: transfections. […] Without wishing to be bound by any theory, the latter effect is most likely due to insufficient complexing of DNA. […] JIMT-1-cells (DSMZ no.: ACC 589) and Neuro-2A- cells (DSMZ no.: ACC 148) were transfected with nanoplexes containing relatively large Cas9-GFP-plasmid, with and without GE1741-Co-application or SO1861-Co-application at a non-toxic concentration, when the cell which is to be transfected is considered. The transfection efficiency of all transfection conditions was measured after 48 h incubation time using flow cytometry by comparison to the negative control in terms of fluorescence intensity (for example, cells contacted with the nanoparticles in the absence of saponin). The efficiency of GE1741-based transfections and SO1861-based transfections was also compared with efficiency of Lipofectamine3000™-based transfection of the nanoparticles. Transfections were performed according to protocols commonly known and applied in the field (Clochard et al., 2020; Sama et al., 2018a; Sama et al., 2017; Sama et al., 2018b). […] Transfection efficiency of GE1741-mediated PD-transfection and SO1861-mediated PD-transfections on Neuro-2A cells and JIMT-1 cells was assessed. […]

## CC(=O)OC1C(C)OC(OC2C(C)OC(OC(=O)C34CCC(C)(C)CC3C3=CCC5C6(C)CCC(OC7OC(C(=O)O)C(O)C(OC8OCC(O)C(O)C8O)C7OC7OC(CO)C(O)C(O)C7O)C(C)(C=O)C6CCC5(C)C3(C)CC4O)C(OC3OC(C)C(OC4OCC(O)C(OC5OCC(O)C(O)C5O)C4O)C(O)C3O)C2O)C(O)C1OC(C)=O (stereo not shown) [GE1741]
  transfection efficiency (cells expressing GFP): around 70%
